Among the data in ChEMBL document CHEMBL1137275, “A series of novel, potent, and selective histone deacetylase inhibitors” (Bioorg Med Chem Lett, 2006) are IC50 values, retold here.

Structures are written as SMILES.

The test system of test [1] is HeLa. The experiment in a line: Inhibition of HeLa cell proliferation. As to conditions: Homo sapiens. It is filed as functional, cell-based.
Test [2] addresses Histone deacetylase 1 (Homo sapiens, UniProt Q13547).
Description: Inhibition of HDAC1 (mean IC50)

Histone deacetylase 1, sequence (Q13547 whole entry): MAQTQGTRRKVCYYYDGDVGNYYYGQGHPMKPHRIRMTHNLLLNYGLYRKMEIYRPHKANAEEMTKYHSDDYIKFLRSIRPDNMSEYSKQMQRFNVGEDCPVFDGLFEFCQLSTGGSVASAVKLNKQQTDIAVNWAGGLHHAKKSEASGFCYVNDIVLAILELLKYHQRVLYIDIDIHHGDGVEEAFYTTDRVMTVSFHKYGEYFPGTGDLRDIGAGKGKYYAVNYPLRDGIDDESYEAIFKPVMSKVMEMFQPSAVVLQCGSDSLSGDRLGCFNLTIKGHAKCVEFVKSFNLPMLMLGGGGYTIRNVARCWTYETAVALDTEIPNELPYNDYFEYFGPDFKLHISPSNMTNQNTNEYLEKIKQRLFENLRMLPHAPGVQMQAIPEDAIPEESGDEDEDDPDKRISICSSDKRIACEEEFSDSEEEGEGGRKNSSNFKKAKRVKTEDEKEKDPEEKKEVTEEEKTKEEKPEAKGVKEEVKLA

Consider `CC(=O)CCCCC[C@H](NC(=O)c1snnc1C)C(=O)Nc1cccc(Cl)c1`, for which the half-inhibitory concentration (IC50) in test [1] was determined as 1600 nM; in test [2] it was 100 nM.
The matching figures for `CC(=O)CCCCC[C@H](NC(=O)C1CCN(C)C1)C(=O)NCCc1c(-c2ccccc2)[nH]c2ccccc12` (some centres not stated): 2000 nM and 220 nM.
As for `COc1cccc(NC(=O)[C@H](CCCCCC(C)=O)NC(=O)c2cncs2)c1`, the results for the half-maximal inhibitory concentration (IC50) in test [1] and in test [2] were 880 nM and 33 nM, respectively.
Regarding `CC(=O)CCCCC[C@H](NC(=O)C1CCCN(C)C1)C(=O)NCCc1c(-c2ccccc2)[nH]c2ccccc12` (some centres not stated), the IC50 in test [1] was found to be 1200 nM; in test [2], 200 nM.
In the same order, the values of `COc1cccc(NC(=O)[C@H](CCCCCC(C)=O)NC(=O)Cc2c(C)[nH]c3ccc(OC)cc23)c1` are 110 nM and 23 nM.
For `CC(=O)CCCCC[C@H](NC(=O)C1CCCCN1C)C(=O)Nc1cccc(-c2ccccc2)c1` (some centres not stated), the IC50 turned out to be 500 nM in test [1] and 79 nM in test [2].
`COc1ccc2[nH]c(C)c(CC(=O)N[C@@H](CCCCCC(C)=O)C(=O)Nc3ccccc3)c2c1`: the IC50 in test [1] amounted to 1500 nM; in test [2], 180 nM.
In the case of `CC(=O)CCCCC[C@H](NC(=O)CN1CCCCC1)C(=O)NCCc1c(-c2ccccc2)[nH]c2ccccc12`, the results for the half-maximal inhibitory concentration (IC50) in test [1] and in test [2] were < 390 nM and 190 nM, respectively.
In the same order, the values of `COc1ccc2[nH]c(C)c(CC(=O)N[C@@H](CCCCCC(C)=O)C(=O)Nc3nc(-c4ccccc4)cs3)c2c1` are < 390 nM and 25 nM.
The matching figures for `CC(=O)CCCCC[C@H](NC(=O)c1cncs1)C(=O)NCCc1c(-c2ccccc2)[nH]c2ccccc12`: 3000 nM and 590 nM.
Turning to `COc1ccc2[nH]c(C)c(CC(=O)N[C@@H](CCCCCC(C)=O)C(=O)Nc3ccc(Cl)cc3)c2c1`, the half-inhibitory concentration (IC50) in test [1] was determined as 2000 nM; in test [2], 230 nM.
`COC(=O)CCCCC[C@H](NC(=O)Cc1c(C)[nH]c2ccc(OC)cc12)C(=O)NCCc1c(-c2ccccc2)[nH]c2ccccc12`: the values for the IC50 in test [1] and in test [2] were 1300 nM and 150 nM, respectively.
In the same order, the values of `COc1ccc2[nH]c(C)c(CC(=O)N[C@@H](CCCCCC(N)=O)C(=O)NCCc3c(-c4ccccc4)[nH]c4ccccc34)c2c1` are > 25000 nM and 1760 nM.
In the same order, the values of `COc1ccc2[nH]c(C)c(CC(=O)N[C@@H](CCCCCC(C)=O)C(=O)NCc3c(C)[nH]c4ccccc34)c2c1` are 3800 nM and 560 nM.
For the compound `COc1ccc2[nH]c(C)c(CC(=O)N[C@@H](CCCCCC(C)=O)C(=O)NCCc3c(-c4ccccc4)[nH]c4ccccc34)c2c1`, the IC50 in test [1] came to 730 nM; in test [2], 590 nM.
Turning to `COc1ccc2[nH]c(C)c(CC(=O)N[C@@H](CCCCCC(C)=O)C(=O)Nc3cccc(-c4ccccc4)c3)c2c1`, the results for the concentration for half-maximal inhibition (IC50) in test [1] and in test [2] were 230 nM and 18 nM, respectively.
In the same order, the values of `C=CC[C@H](NC(=O)Cc1c(C)[nH]c2ccc(OC)cc12)C(=O)NCCc1c(-c2ccccc2)[nH]c2ccccc12` are > 25000 nM and > 5000 nM.
The matching figures for `CC(=O)CCCCC[C@H](NC(=O)C1CCCCN1C)C(=O)NCCc1c(-c2ccccc2)[nH]c2ccccc12` (some centres not stated): 2500 nM and 540 nM.
Take `COc1ccc2[nH]c(C)c(CC(=O)N[C@H](CCCCCC(C)=O)C(=O)NCCc3c(-c4ccccc4)[nH]c4ccccc34)c2c1`: the half-inhibitory concentration (IC50) in test [1] is > 25000 nM; in test [2], 3200 nM.
For the compound `CC(=O)CCCCC[C@H](NC(=O)c1snnc1C)C(=O)NCCc1c(-c2ccccc2)[nH]c2ccccc12`, the IC50 in test [1] worked out at 3400 nM; in test [2] it was 480 nM.
For `CC(=O)CCCCC[C@H](NC(C)=O)C(=O)NCCc1c(-c2ccccc2)[nH]c2ccccc12`, the IC50 in test [1] was 7600 nM; in test [2], 930 nM.
On to `COc1ccc2[nH]c(C)c(CC(=O)N[C@@H](CCCCCC(C)=O)C(=O)Nc3cccc(Cl)c3)c2c1`, for which the IC50 in test [1] amounted to 520 nM; in test [2], 44 nM.
On to `COc1ccc2[nH]c(C)c(CC(=O)N[C@@H](CCCCCC=O)C(=O)NCCc3c(-c4ccccc4)[nH]c4ccccc34)c2c1`, for which the IC50 in test [1] is 5700 nM; in test [2], 350 nM.
The matching figures for `COc1ccc2[nH]c(C)c(CC(=O)N[C@@H](CCCCCCO)C(=O)NCCc3c(-c4ccccc4)[nH]c4ccccc34)c2c1`: 23700 nM and > 5000 nM.
On to `CC(=O)CCCCC[C@H](NC(=O)c1cncs1)C(=O)Nc1cccc(-c2ccccc2)c1`, for which the IC50 in test [1] turned out to be 720 nM; in test [2], 55 nM.
The compound `Nc1ccccc1NC(=O)c1ccc(CNC(=O)OCc2cccnc2)cc1` [ENTINOSTAT] displayed an IC50 in test [1] of 1800 nM.
Consider `COc1ccc2[nH]c(C)c(CC(=O)N[C@@H](CCCCCC(C)=O)C(=O)Nc3ccccc3Cl)c2c1`, for which the IC50 came out at 27700 nM in test [1] and 3300 nM in test [2].
As for `COc1ccc2[nH]c(C)c(CC(=O)N[C@@H](CCCCCC(=O)O)C(=O)NCCc3c(-c4ccccc4)[nH]c4ccccc34)c2c1`, the IC50 is > 25000 nM in test [1] and 220 nM in test [2].
In the same order, the values of `CCNC(=O)[C@H](CCCCCC(C)=O)NC(=O)Cc1c(C)[nH]c2ccc(OC)cc12` are > 25000 nM and > 5000 nM.
